Values quoted from earlier work as cited in patent EP1228757B1 (Uni-Pharma Kleon Tsetis Pharmaceutical Laboratories S.A., priority 2001, dated 2002).

System: albino rats
Conditions: endo-peritoneally administered to albino rats

CC(O)CO (centres unmarked) [Propylene glycol]
LD50: higher than 8000 mg/kg

Glycerol formal
LD50: 3000 mg/kg
